Data on 10 molecules can be found in patent US8716287B2, “Pharmaceutical compounds” (Sentinel Oncology Limited, priority 2010, dated 2014).

Where a name gives a salt, the structure may show the parent alone. Read-outs that look alike come from different tables or passages of the source.

One series deals with Chk-1 kinase (Homo sapiens (Human), UniProt O14757). As to the kind of experiment: Chk-1 kinase inhibiting activity (33P-ATP filter assay, CHKtide substrate). Format: biochemical. As to the method: The compounds of the invention were tested for activity against Chk-1 kinase using the materials and protocols set out below.
Base Reaction buffer: 20 mM Hepes (pH 7.5), 10 mM MgCl2, 1 mM EGTA, 0.02% Brij35, 0.02 mg/ml BSA, 0.1 mM Na3VO4, 2 mM DTT, 1% DMSO
*Required cofactors are added individually to each kinase reaction
(i) Prepare indicated substrate in freshly prepared Base Reaction Buffer
(ii) Deliver any required cofactors to the substrate solution above
(iii) Deliver indicated kinase into the substrate solution and gently mix
(iv) Deliver compounds in DMSO into the kinase reaction mixture
(v) Deliver ^33P-ATP (specific activity 0.01 μCi/μl final) into the reaction mixture to initiate the reaction.
(vi) Incubate kinase reaction for 120 minutes at room temperature
(vii) Reactions are spotted onto P81 ion exchange paper (Whatman #3698-915)
(viii) Wash filters extensively in 0.1% phosphoric acid.
(ix) Dry filters and measure counts in scintillation counter
Recombinant full length construct, N-terminal GST tagged, purified from insect cells.
No special measures were taken to activate this kinase.
Final concentration in assay=0.5 nM
Peptide sequence: [[…]]
Final concentration in assay=20 μM
No additional cofactors are added to the reaction mixture

The test system of a further series is MV4-11 cells. Description: Inhibition of cell growth in MV4-11 cells (Alamar blue). The series is classed as cell-based. The conditions noted are these: Homo sapiens, 72 h incubation. On the procedure:
(§1) Studies were carried out to test the effect of compounds on the inhibition of cell growth in MOLM-13 and MV4-11 cells.
(§2) The following protocol was used:
(§3) (a) Cells were seeded in 96-well plates at cell densities of 2500/well (MOLM-13) and 10,000/well (MV4-11). Cells were then incubated overnight prior to addition of compound or vehicle control.
(§4) (b) Test compounds were prepared from 10 mM DMSO stocks to give a final concentration range of 10 μM, 3 μM, 1 μM, 0.3 μM, 0.1 μM, […], […] and vehicle control. The DMSO content was constant at 0.1%.
(§5) (c) Test compounds were incubated with the cells for 72 h at 37° C. 5% CO2 in a humidified atmosphere.
(§6) (d) Alamar blue 10% (v/v) was then added and incubated for a further 4 h, and fluorescent product detected using the BMG FLUOstar plate reader.
(§7) (e) Media only background values were subtracted and the data analysed using a 4-parameter logistic equation in GraphPad Prism.
(§8) From the results obtained by following the above protocol, the IC50 values against MOLM-13 and MV4-11 cells of the compounds of Examples 20, 21, 22, 25, 33, 35, 37, 38, 44, 48, 49, 50, 51, 53, 54 and 55 were determined.
For orientation: The colour change of resazurin is a common sign of viable cells or microbes.

The next series deals with MOLM-13 cells. Description: Inhibition of cell growth in MOLM-13 cells (Alamar blue). The series is classed as cell-based. The conditions noted are these: Homo sapiens, 72 h incubation. As to the method:
as §1, §2, §3, §4, §5, §6, §7, §8

For another series, the system named is HT29 cells. Description: Sensitisation of HT29 cells to SN38 (Alamar blue cell growth). Format: cell-based, human. The conditions noted are these: HT29 cells. As to the method: Studies were carried out to test the sensitising effect of compounds of the invention on the ability of the DNA damaging compound 7-ethyl-10-hydroxycamptothecin (SN38), an active metabolite of the anti-cancer drug irinotecan, to inhibit cell growth in HT29 cells.
as §2
(a) HT29 cells were seeded in 96-well plates at a concentration of 3000 cells per well and allowed to adhere overnight prior to addition of compound or vehicle control.
(b) SN38 was prepared from a 10 mM DMSO stock to give a final concentration range of 1 μM, 300 nM, 100 nM, 30 nM, 10 nM, 3 nM, 1 nM, and vehicle control.
(c) Test compounds were prepared from 10 mM DMSO stocks to typically give a final concentration range of 3 μM, 1 μM, 0.3 μM. 0.1 μM, 0.03 μM and vehicle control. The final DMSO content was 0.4%.
(d) Test compounds were incubated with the cells for 72 h at 37° C. 5% CO2 in a humidified atmosphere.
(e) Alamar blue 10% (v/v) was then added and incubated for a further 6 h, and fluorescent product detected using the BMG FLUOstar plate reader.
(f) Data were analysed using a 4-parameter logistic equation in GraphPad Prism.
Sensitisation is determined by the enhancement in IC50 of SN38 by the addition of the Chk-1 kinase inhibitor. In the protocol described above, the IC50 for SN-38 is determined the presence of varying doses of the Chk-1 inhibitor. The fold shift represents a decrease in IC50 for SN-38 at a dose of Chk-1 inhibitor that has no effect by itself.

Where [1] appears, read: Chk-1 kinase, Table 3, read-out: IC50.
Where [2] appears, read: ranges given, read-out: IC50 values against Chk-1 kinase.

Chain of Chk-1 kinase (O14757 whole entry): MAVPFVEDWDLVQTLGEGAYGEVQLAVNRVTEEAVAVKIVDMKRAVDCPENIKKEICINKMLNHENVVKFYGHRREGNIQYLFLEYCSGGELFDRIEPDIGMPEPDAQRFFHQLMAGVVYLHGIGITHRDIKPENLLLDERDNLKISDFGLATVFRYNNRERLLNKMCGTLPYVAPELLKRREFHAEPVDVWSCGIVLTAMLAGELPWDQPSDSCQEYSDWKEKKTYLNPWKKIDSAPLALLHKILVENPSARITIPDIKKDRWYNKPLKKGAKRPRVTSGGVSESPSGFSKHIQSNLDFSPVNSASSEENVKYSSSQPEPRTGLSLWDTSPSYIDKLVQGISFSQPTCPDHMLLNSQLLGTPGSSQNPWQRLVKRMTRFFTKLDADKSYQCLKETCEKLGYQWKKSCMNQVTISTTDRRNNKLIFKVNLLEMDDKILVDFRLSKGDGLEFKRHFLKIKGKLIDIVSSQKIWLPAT

For the molecule `COc1ccccc1CNCCc1cc(OC)c(NC(=O)Nc2cnc(C#N)cn2)cc1Cl` [Example 55, 1-{5-Chloro-2-methoxy-4-[2-(2-methoxy-benzylamino)-ethyl]-phenyl}-3-(5-cyano-pyrazin-2-yl)-urea hydrochloride], the IC50 (commonly the concentration at which inhibition is half-maximal) is 0.48 nM at Chk-1 kinase (setting [1]), under 10 nM at Chk-1 kinase (setting [2]), 254 nM with MV4-11 cells and 34 nM with MOLM-13 cells.
Take `COc1cc(OCCNCc2ccc(F)cc2)ccc1NC(=O)Nc1cnc(C#N)cn1` [Example 21, 1-(5-Cyano-pyrazin-2-yl)-3-{4-[2-(4-fluorobenzylamino)-ethoxy]-2-methoxy-phenyl}-urea]: the IC50 at Chk-1 kinase (setting [1]) is 4.1 nM; on Chk-1 kinase (setting [2]), under 10 nM; in the series on MV4-11 cells, 1290 nM; in the series on MOLM-13 cells, 1300 nM.
In the case of `COc1cc(CCN[C@@H](C)c2ccc(F)cc2)ccc1NC(=O)Nc1cnc(C#N)cn1` [Example 44, 1-(5-Cyano-pyrazin-2-yl)-3-(4-{2-[(S)-1-(4-fluoro-phenyl)-ethylamino]-ethyl}-2-methoxy-phenyl)-urea], the IC50 is 5.1 nM on Chk-1 kinase (setting [1]), under 10 nM at Chk-1 kinase (setting [2]), 960 nM with MV4-11 cells and 850 nM with MOLM-13 cells.
For `COc1cc(CCNCc2ccc(N3CCN(C)CC3)cc2)ccc1NC(=O)Nc1cnc(C#N)cn1` [Example 51, 1-(5-Cyano-pyrazin-2-yl)-3-(2-methoxy-4-{2-[4-(4-methyl-piperazin-1-yl)-benzylamino]-ethyl}-phenyl)-urea] the same measures were 3.3 nM, under 10 nM, 860 nM and 240 nM.
Consider `N#Cc1cnc(NC(=O)Nc2ccc(CCNCc3ccc(N4CCOCC4)cc3)c(Cl)c2)cn1` [Example 25, 1-{3-Chloro-4-[2-(4-morpholin-4-yl-benzylamino)-ethyl]-phenyl}-3-(5-cyano-pyrazin-2-yl)-urea], for which the IC50 on Chk-1 kinase (setting [1]) is 18 nM; on Chk-1 kinase (setting [2]) it was 10 to 100 nM; in the series on MV4-11 cells, 1710 nM; in the series on MOLM-13 cells it was 1790 nM.
The like results for `COc1ccc([C@H](C)NCCc2cc(OC)c(NC(=O)Nc3cnc(C#N)cn3)cc2Cl)cc1` [Example 53, 1-(5-Chloro-2-methoxy-4-{2-[(S)-1-(4-methoxy-phenyl)-ethylamino]-ethyl}-phenyl)-3-(5-cyano-pyrazin-2-yl)-urea hydrochloride] were, in that order, 0.56 nM, under 10 nM, 288 nM and 30 nM.
`COc1cc(CCNCc2ccc3c(c2)OCO3)c(Cl)cc1NC(=O)Nc1cnc(C#N)cn1` [Example 54, 1-(4-{2-[(Benzo[1,3]-dioxol-5-ylmethyl)-amino]-ethyl}-5-chloro-2-methoxy-phenyl)-3-(5-cyano-pyrazin-2-yl)-urea hydrochloride]: the IC50 on Chk-1 kinase (setting [2]) is under 10 nM; with MV4-11 cells, 52 nM; in the series on MOLM-13 cells, 14 nM.
In the case of `N#Cc1cnc(NC(=O)Nc2ccc(CCNCCc3ccc(F)cc3)c(Cl)c2)cn1` [Example 7, 1-(3-Chloro-4-(2-(4-fluorophenethylamino)ethyl)phenyl)-3-(5-cyanopyrazin-2-yl)urea], in the series on HT29 cells (test compound at 1 μM), the “fold shift in the IC50 value of SN38” value is reported as “two”. Besides, the results for the IC50 on Chk-1 kinase (setting [1]) and on Chk-1 kinase (setting [2]) were 16 nM and 10 to 100 nM, respectively.
As to `N#Cc1cnc(NC(=O)Nc2ccc(CCNCc3ccc(F)c(F)c3)c(Cl)c2)cn1` [Example 40, 1-{3-Chloro-4-[2-(3,4-difluoro-benzylamino)-ethyl]-phenyl}-3-(5-cyano-pyrazin-2-yl)-urea], in the series on HT29 cells (test compound at 3 μM), the “fold shift in the IC50 value of SN38” value is given as “three”. Also, the IC50 is 7.9 nM at Chk-1 kinase (setting [1]) and under 10 nM on Chk-1 kinase (setting [2]).
Regarding `C[C@H](NCCc1ccc(NC(=O)Nc2cnc(C#N)cn2)cc1Cl)c1ccc(F)cc1` [Example 18, 1-(3-Chloro-4-{2-[(S)-1-(4-fluoro-phenyl)-ethylamino]-ethyl}-phenyl)-3-(5-cyano-yrazin-2-yl)-urea hydrochloride], in the series on HT29 cells (test compound at 1 μM), the “fold shift in the IC50 value of SN38” value is “two”. Further, the figures for the IC50 on Chk-1 kinase (setting [1]) and at Chk-1 kinase (setting [2]) were 21 nM and 10 to 100 nM, respectively.
